According to patent US20090192095A1 (priority 2008, published 2009):
Values joined by “and” are separate entries in the source; they are usually repeats but may differ in a detail not shown here. Identical values can stand only once. Counter-ions that a name gives are not always drawn. Like-named read-outs stand apart in the source and are kept apart here.

What was measured:
ferret = conditions: for Total number of individual incidences of: Retching / Total number of individual incidences of: Vomiting: individual ferrets, 150 mg/kg oral, naloxone 0.5 mg/kg s.c. pretreatment, observed 2 hours
[1] = test system: rat colon circular muscle strips; format: cell-based; design: unit not given here; conditions: rat colonic strips, EFS
[2] = test system: human colon circular muscle strips; format: cell-based; conditions: human colonic strips, EFS
[3] = for Simulated gastric fluid (pH 1.1): % remaining after 2 h/37° C. / Simulated intestinal fluid (pH 6.8): % remaining after 2 h/37° C.: simulated gi fluid
acetyl choline esterase = acetyl choline esterase (Homo sapiens, UniProt P22303); assay: In vitro assessment with a human acetyl choline esterase preparation; format: biochemical
Chain of acetyl choline esterase (P22303 32-614): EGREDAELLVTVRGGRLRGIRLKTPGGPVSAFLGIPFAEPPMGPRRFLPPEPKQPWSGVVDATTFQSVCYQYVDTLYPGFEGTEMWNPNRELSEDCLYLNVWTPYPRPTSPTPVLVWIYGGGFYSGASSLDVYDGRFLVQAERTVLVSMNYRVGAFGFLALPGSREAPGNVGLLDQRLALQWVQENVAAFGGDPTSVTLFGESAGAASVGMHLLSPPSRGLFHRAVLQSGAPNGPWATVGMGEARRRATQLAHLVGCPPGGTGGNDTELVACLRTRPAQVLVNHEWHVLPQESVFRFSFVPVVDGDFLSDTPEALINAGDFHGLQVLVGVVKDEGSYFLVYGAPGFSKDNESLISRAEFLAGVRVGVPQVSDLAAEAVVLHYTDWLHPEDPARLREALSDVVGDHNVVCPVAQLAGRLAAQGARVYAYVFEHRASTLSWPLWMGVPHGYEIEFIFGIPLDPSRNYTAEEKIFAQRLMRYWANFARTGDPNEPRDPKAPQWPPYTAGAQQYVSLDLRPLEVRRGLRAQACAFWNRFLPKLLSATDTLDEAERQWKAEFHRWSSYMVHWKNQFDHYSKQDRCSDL

[4] = Beagle, dog, in vivo, po, 1 mg/kg
[5] = test system: guinea pig small intestine myenteric plexus longitudinal muscle; assay: tissue or blood; format: cell-based; conditions: for EC50: Cavia porcellus, read-out: EC50 for inhibition of contractility
[6] = test system: gastro-intestinal motility in the rat; assay: Charcoal propulsion test (gastro-intestinal motility) in the rat; conditions: oral; for delay of the passage of the charcoal meal (gut motility): 30 mg/kg dose or equimolar dose of prodrug
[7] = listed as meptazinol valine carbamate
[8] = female, ferret, in vivo, po, 150 mg/kg
[9] = 10 mg/kg, 60 min before charcoal, 30 min after charcoal

Compound: CCC1(c2cccc(OC(=O)N[C@H](C(=O)O)C(C)C)c2)CCCCN(C)C1 (stereo partly drawn) [Meptazinol valine carbamate, meptazinol-(S)-valine carbamate trifluoroacetate]
- animals demonstrating any retching and vomiting (ferret; group of five ferrets, comparable molar dose, 2 hours): only one
- Total number of individual incidences of: Retching (ferret): 0 (4×) and 2
- Total number of individual incidences of: Vomiting (ferret): 0 (4×) and 1
- Total number of individual incidences of: Retching (ferret; [7]): 2
- Total number of individual incidences of: Vomiting (ferret; [7]): 1
- Mean force of contraction ± sd ([1]; 0.01 μM): 104.47
- Mean force of contraction ± sd ([1]; 0.1 μM): 121.87
- Mean force of contraction ± sd ([1]; 0.5 μM): 86.04
- Mean force of contraction ± sd ([1]; 1.0 μM): 75.22
- Mean force of contraction ± sd ([1]; 10 μM): 65.57
- Mean force of contraction ± sd ([1]; 100 μM): 75.17
- Mean force of contraction ± sd ([2]; 0.01 μM): 89.77
- Mean force of contraction ± sd ([2]; 0.1 μM): 83.63
- Mean force of contraction ± sd ([2]; 0.5 μM): 79.00
- Mean force of contraction ± sd ([2]; 1.0 μM): 80.56
- Mean force of contraction ± sd ([2]; 10 μM): 76.92
- Mean force of contraction ± sd ([2]; 100 μM): 79.25
- Distilled water (pH 5.9): % remaining after 2 h/20° C. [3]: 100%
- Simulated gastric fluid (pH 1.1): % remaining after 2 h/37° C. [3]: 100%
- Simulated intestinal fluid (pH 6.8): % remaining after 2 h/37° C. [3]: 99%
- acetyl choline esterase inhibitory action (acetyl choline esterase): loss of acetyl choline esterase inhibitory action

Compound: CCC1(c2cccc(O)c2)CCCCN(C)C1 (stereo not drawn) [Meptazinol]
- animals that exhibited retching and emesis (ferret; [8]): 50%
- episodes of vomiting in animals that responded (ferret; [8]): 1-17
- retches observed in a 2 hour period in animals that responded (ferret; [8]): 5-66
- T½ [4]: 2.8 h

Compound: CC(C)[C@@H](NC(=O)OC1=C2OC3C(=O)CCC4[C@H]5CC(CC1)C2[C@@]34CCN5C)C(=O)O (stereo partly drawn) [Hydromorphone valine carbamate, hydromorphone-(S)-valine carbamate trifluoroacetate]
- Distilled water (pH 5.9): % remaining after 2 h/20° C. [3]: 100%
- Simulated gastric fluid (pH 1.1): % remaining after 2 h/37° C. [3]: 100%
- Simulated intestinal fluid (pH 6.8): % remaining after 2 h/37° C. [3]: 98%

Compound: CC(C)C(NC(=O)Oc1ccc2c3c1O[C@H]1C(=O)CC[C@@]4(O)[C@@H](C2)N(C)CC[C@]314)C(=O)O (stereo partly drawn) [Oxymorphone valine carbamate, oxymorphone-(S)-valine carbamate hydrochloride]
- Distilled water (pH 5.9): % remaining after 2 h/20° C. [3]: 100%
- Simulated gastric fluid (pH 1.1): % remaining after 2 h/37° C. [3]: 100%
- Simulated intestinal fluid (pH 6.8): % remaining after 2 h/37° C. [3]: 97%
- Fold difference [5]: 15.5
- EC50 [5]: 200 nM
- % change from vehicle-treated animals, Small intestine ([6]; 10 mg/kg): −4.9%
- % change from vehicle-treated animals, Total gut length ([6]; 10 mg/kg): −3.9%
- Group mean distance travelled by charcoal as % of (±sd) Small intestine [6, 9]: 68.5 ± 7.85%
- Group mean distance travelled by charcoal as % of (±sd) Total gut length [6, 9]: 58.9 ± 6.95%
- % change from vehicle-treated animals, Small intestine ([6]; 30 mg/kg): −13.7%
- % change from vehicle-treated animals, Total gut length ([6]; 30 mg/kg): −13.1%
- delay of the passage of the charcoal meal (gut motility) [6]: 14%

Compound: CN1CC[C@]23c4c5ccc(O)c4O[C@H]2C(=O)CC[C@@]3(O)[C@H]1C5 [Oxymorphone]
- EC50 [5]: 12.9 nM
- T½ [4]: 2.2 h
- % change from vehicle-treated animals, Small intestine ([6]; 1 mg/kg): −5.0%
- % change from vehicle-treated animals, Total gut length ([6]; 1 mg/kg): −4.5%
- % change from vehicle-treated animals, Small intestine ([6]; 3 mg/kg): −9.5%
- % change from vehicle-treated animals, Total gut length ([6]; 3 mg/kg): −9.4%
- % change from vehicle-treated animals, Small intestine ([6]; 10 mg/kg): −24.1%
- % change from vehicle-treated animals, Total gut length ([6]; 10 mg/kg): −24.1%
- % change from vehicle-treated animals, Small intestine ([6]; 30 mg/kg): −69.5%
- % change from vehicle-treated animals, Total gut length ([6]; 30 mg/kg): −69.8%
- delay of the passage of the charcoal meal (gut motility) [6]: 70%
